Source: patent publication US20110281951A1, “Compositions and methods for treating amyloidosis” (priority 1999, published 2011)

Key:
Type in all cases: biochemical
IAPP = target: T1, IAPP (Homo sapiens, UniProt P10997); test: CD analysis of IAPP fibril formation (Example 4); design: add 10 μL of 10 mg/mL IAPP stock solution (final 100 ng peptide)
T1 sequence (P10997 34-70 limits assumed): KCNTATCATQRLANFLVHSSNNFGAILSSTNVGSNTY

Aβ42 = target: T2, Aβ42 (Homo sapiens, UniProt P05067); test: Solubility assay using Bradford detection (Aβ fibril formation); conditions: roughly 1:10 peptide:compound, overnight at room temperature, 10 mM phosphate buffer pH 7
T2 construct: Stock solution of Aβ42 or Aβ40 peptide at 5 mg/ml in distilled water, pH 7; made in house; host or cells: chemical synthesis (FMOC), HPLC purified
Procedure: Alternatively, peptides can also be obtained from a number of commercial sources (e.g., BaChem and Peninsula Laboratories, California). The assay was conducted as follows. Stock solution of Aβ42 or Aβ40 peptide at 5 mg/ml in distilled water, pH 7, and stock solutions of each test compound at 2 mg/ml in distilled water, pH 7 were prepared. • 1. Mix 5 μl (25 μg) of stock Aβ and 12.5 μl (25 μg) of stock test compounds into 1000 μl of 10 mM phosphate buffer, pH 7. This provides a molar ratio of roughly 1:10 [ peptide:compound] assuming a general molecular weight of 400 daltons for the test compounds. Control samples were prepared for both peptide and compound. These contained Aβ only using both 25 μg (5 μl stock Aβ) and 50 μg ([…]) to provide a standard curve for each run. Test compound controls contained 25 μg of material (12.5 μl of stock). All samples were mixed in 1000 μl of 10 mM phosphate buffer, pH 7 to final volume of 1017.5 μl. • 2. Incubate all samples overnight at room temperature without mixing. • 3. Spin at 14,000 rpm for 10 min in table top Eppendorf microfuge. • 4. Take 800 μl of supernatant. • 5. Add 200 μl of Bradford reagent (purchased from BioRad). • 6. Mix well by vortexing. • 7. Read at OD595 nm.

Aβ(1-40) = target: T3, Aβ(1-40) (Homo sapiens, UniProt P05067); test: Circular dichroism analysis, pre-incubation assay, β-sheet at 218 nm; conditions: CD 218 nm, 0.02M Tris pH 7.4
T3 construct: Prepare a fresh 40 μm solution of Aβ(1-40) in 0.02M Tris, pH 7.4; made in house; host or cells: chemical synthesis (FMOC), HPLC purified
Procedure: The assay is conducted as follows:
Instrument: JASCO J-715 Spectropolarimeter.
Cell/cuvette: Hellma quartz (QS) with 1.0 mm pathlength Room temperature. Wavelength interval: 250 nm-190 nm.
Band width: 1.0 nm Response time: 1 sec Scanning speed: 20 nm/min Number of accumulations/spectrum: 5
1. Prepare a fresh 40 μm solution of Aβ(1-40) in 0.02M Tris, pH 7.4.
2. Prepare a 1 mM solution of test compounds in 0.02M Tris, pH 7.4.
3. Combine equal volumes of the Aβ(1-40) and test compound solutions.
4. Incubate the mixtures for 19 h.
5. Take the CD spectrum using the parameters above.
6. Return the mixtures to the incubator and incubate to 43 h.
7. Take the CD spectrum using the parameters above. • Inhibition of Aβ40 assembly/aggregation is determined by comparing the amount of b-sheet structure) appearing at lambda=218 nm) obtained in control and in treated sample at each timepoint.

T3 sequence (P05067 672-711 limits assumed): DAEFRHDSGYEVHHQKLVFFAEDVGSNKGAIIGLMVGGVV
T2 sequence (P05067 672-713 limits assumed): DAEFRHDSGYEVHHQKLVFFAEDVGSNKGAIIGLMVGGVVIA

Compound | Activity (preventing or inhibiting IAPP fibril formation) (IAPP) | Aβ42 remaining in the supernatant (activity class) (Aβ42) | relative inhibition compared to Aβ alone, incubation time 0 h (Aβ(1-40)) | relative inhibition compared to Aβ alone, incubation time 19 h (Aβ(1-40)) | relative inhibition compared to Aβ alone, incubation time 43 h (Aβ(1-40))
O=S(=O)(O)CCCNC1(CO)CCCC1 [XLII, 3-(1-hydroxymethyl-1-cyclopentyl)amino-1-propanesulfonic acid] | Active | – | – | – | –
O=S(=O)(O)CCCN1CCc2ccccc2C1 [XVII, 3-[2-(1,2,3,4-tetrahydroisoquinolinyl)]-1-propanesulfonic acid] | – | Active | —^1, 2 (No effect compared to Aβ alone) | + (+: 0-25%) | ++ (++: 25-50%)
COc1cc(-c2ccc(N=Nc3ccc4c(S(=O)(=O)[O-])cc(S(=O)(=O)[O-])c(N)c4c3O)c(OC)c2)ccc1N=Nc1ccc2c(S(=O)(=O)[O-])cc(S(=O)(=O)[O-])c(N)c2c1O.[Na+].[Na+].[Na+].[Na+] [XXIX, Chicago Sky Blue 6B] | – | Very active | – | – | –
CC(CCCO)NCCCS(=O)(=O)O (stereo not drawn) [XXXVIII, 3-[(dl)-5-hydroxy-2-pentyl]amino-1-propanesulfonic acid] | Active | – | — (No effect compared to Aβ alone) | +++ (+++: 50-75%) | ++ (++: 25-50%)
